# No end group written: not given here.
# Key:
# [1] = DMPC MLV lipid clearance (lipid binding); details: compared with ApoA-I; 30 nmol/l DMPC, 1:100 molar ratio, 25°C, absorbance at 325 nm; n=5
# Procedure: Turbid MLV solutions at 30 nmol/l DMPC were combined with PBS, RG54 or ApoA-I at a 1:100 molar ratio, and lipid binding at 25°C was measured by absorbance at 325 nm at the indicated times. Readings were fitted to one-way decay of non-linear regression.
# Quantitative and qualitative lipid assays were applied to determine the lipid-binding properties of RG54. Solubilisation of MLVs made from DMPC phospholipids by RG54 peptide, or by recombinant ApoA-I protein as control, was assayed by light scattering (ESM Fig. 4a).
# ESM Figure 4. Lipid clearance and peptide-lipid complex formation activity of RG54 compared with full-length ApoA-I.
# DMPC clearance activity of RG54 was compared with ApoA-I. Turbid solutions of DMPC MLVs (30 nmol/l) were prepared in PBS as described in Methods and combined with PBS, RG54, or ApoA-I at a 1:100 molar ratio then lipid binding at 25°C was measured by absorbance at 325 nm at indicated times. (a) Readings were fitted to one-way decay of non-linear regression. (b) The lipid clearance rate is described as t1/2 values calculated from panel a, means ± SEM, n=5, *** p ≤ 0.001. Further, rHDL particles were prepared by incubating the MLVs with proteins or peptides in the molar ratios noted at 24°C for four days. Particle size distribution was analysed by DLS and frequency curves generated for ApoA-I (c) or RG54 (d). […]
# [2] = Peptide stability in physiologic buffer or blood plasma; type: in vitro ADME; details: after denaturation/refolding; phosphate buffer, human plasma (citrate, pooled from four donors) or mouse CD-1 plasma (heparin); over 2 h; LC-MS/MS
# Procedure: Peptide (lyophilised powder) produced by Red Glead (Lund, Sweden) was reconstituted in Milli-Q water and then either used directly or mixed in a 1:1 ratio with 6 mol/l guanidine HCl in 2× PBS to give a monodisperse solution, followed by desalting using a column equilibrated with PBS, pH 7.4, using ÄKTAxpress fast protein LC (GE Healthcare, Uppsala, Sweden). Peptide integrity was analysed using circular dichroism spectroscopy. Peptide solubility was assayed at Red Glead using HPLC. Peptide stability in physiologic buffer or blood plasma (human or mouse) over 2 h was assayed at the Science for Life Laboratory (Uppsala, Sweden). […]
# Peptide concentration was determined at 205 nm using a NanoDrop 2000c spectrophotometer (Thermo Scientific) and integrity was analysed by Tris-Tricine SDS-PAGE followed by coomassie staining or by circular dichroism spectroscopy (CD). […]
# The primary goal of this study was to investigate the anti -diabetic and anti-atherosclerotic efficacy of a novel ApoA -I derived peptide. Using a range of in vitro models, we assessed the effects of the peptide on HDL formation, cholesterol efflux, insulin secretion, and non -insulin dependent glucose uptake. […] Peptide effects were measured relative to full length ApoA -I and vehicle controls. […]
# Supernatants were recovered and insulin secretion was analysed by ELISA (Mercodia). […]
# [3] = rHDL formation, particle size by DLS; details: 1:100 protein:lipid molar ratio, extruded 100 nm MLVs, 4 days (96 h), 24°C
# Procedure: 1,2-dimyristoyl-sn-glycero-3-phosphocholine (DMPC; Avanti Polar Lipids, Alabaster, AL, USA) was formed into 100 nm multilamellar vesicles (MLV) via extrusion using the LiposoFast system (Avestin, Ottawa, ON, Canada) as previously described. MLV were incubated with RG54 or ApoA-I at the indicated ratios for 4 days at 24°C to form rHDL. The resulting particle sizes were measured by dynamic light scattering (DLS) using a Zetasizer APS (Malvern Instruments, Uppsala, Sweden).
# The reduced initial rate may be due to a more complex binding pattern of the larger number of RG54 peptides needed per formed particle: four to five RG54 molecules (54 amino acids each) are needed to make up the size of full-length ApoA-I (243 amino acids). A qualitative assessment of particle formation was therefore next used to evaluate and compare the sizes of formed rHDL. The hydrodynamic diameters of lipid–protein complexes formed after extended incubation (96 h) of RG54 or ApoA-I with extruded 100 nm MLVs were estimated using DLS.
# ESM Figure 4. Lipid clearance and peptide-lipid complex formation activity of RG54 compared with full-length ApoA-I. […]
substance,measurement,setting,value
Ac-AEYHAKATEHLSTLSEKAKPALEDLRQGLLPVLESFKVSFLSALEEYTKKLNTQ [RG54],initial rate of phospholipid binding,[1],significantly lower
same,peptide integrity by peptide stability assays (buffer or plasma),[2],confirmed
same,lipid-protein complexes formed (DLS frequency plots),[3],single peaks corresponding to rHDL particles

# Source: publication PMC6560211, “ApoAI-derived peptide increases glucose tolerance and prevents formation of atherosclerosis in mice” (Diabetologia, 2019)
